In patent US20020132276A1, “FACS method for detecton of GPIIb/IIIa inhibitor dependent activators in plasma samples” (priority 1999, published 2002):
Entries after “also recorded” stand apart in the source; their conditions may differ.

Experiments:
[1] = tested on: platelet CD62; test: Detection of ADP as a GPIIb/IIIa DDPAS by DDPASFCA; format: cell-based, human; settings: ADP 0 μM
Procedure: Adenosine diphosphate (ADP) was evaluated as a possible DDPAS as follows: Compound A (final concentration 1 μM) or vehicle was added to 25 μL of freshly prepared PRP in wells of a 96-well microtiter plate. Another set of wells received vehicle. After 10 minutes, 2.5 μL of from each well was transferred to microtiter wells containing only 20 μL of anti-CD62-PE. After incubation for 30 minutes, samples were analyzed by flow cytometry as in Example 1.

[2] = tested on: platelet CD62; test: DDPASFCA: flow cytometric detection of platelet CD62 in plasma samples with and without GPIIb/IIIa antagonist (Example 1 procedure); format: cell-based, human; set-up: key to Delta Med F12: median PE fluorescence with antagonist minus without antagonist
Procedure: 50 μL of citrated plasma from a patient eliciting a thrombocytopenic response during treatment with Compound A was added to Costar Serocluster® 96 well V-bottom microtiter plates (#3897). GPIIb/IIIa antagonist or vehicle was added (2 μL of 5μM compound A, final concentration 200 nM) was added, followed by sufficient PRP or PRP diluted into PPP to give a final platelet number of 1×10^6/well (typically 2 μL PRP). Reactions were incubated without shaking for 120 minutes. After this time, 15 μL of phycoerythrin conjugated anti-CD62 (anti-CD62-PE, Bectin Dickinson) was added. After 30 minutes the samples were diluted with 130 μL flow buffer (FB) consisting of 10 mM HEPES, 5 mM Kcl, 168 mM NaCl, 1 mM MgCl2. Samples were then transferred to 12×75 mm polystyrene and analyzed on a FACScan (Bectin Dickinson). PE fluorescence was read on FL2. Platelets were identified by their characteristic forward and side light scatter. Data from 10,000 events was obtained per sample and analyzed using Bectin Dickinson CellQuest software. The effects of GPIIb/IIIa antagonists on CD62 expression are expressed as the difference in median PE fluorescence for reactions in the presence of GPIIb/IIIa antagonist and CD62 median PE fluorescence in the absence of a GPIIb/IIIa antagonist.
The procedure was the same as in Example 1 (with modifications outlined in that example) except that where samples were limiting, only 35-40 μL of plasma was used.
Plasma from a patient who developed a thrombocytopenic episode while under therapy with Compound A was analyzed for the presence of DDPASs that might not be of immunoglobulin nature. Plasma from this previously thrombocytopenic patient (taken 17 months after the thrombocytopenia) as well as normal human plasma (negative control) and plasma from a subject known to contain DDPAS (positive control) were processed to remove immunoglobulins by passage through 1 mL protein A Hitrap® columns (Pharmacia, Inc.). The immunoglobulin-depleted plasma was free of IgG as assessed by an IgGl-specific ELISA and negative for the presence of GPIIb/IIIa antagonist-dependent anti-platelet antibodies as assessed by the DDAB ELISA assay. Plasma samples were then tested in the DDPASFCA as described in Example 1. There was no statistical difference between results for plasma samples containing immunoglobulin and those not containing immunoglobulin, Table 1.
The detection of a positive DDPAS titer in the presence of a donor plasma was assessed with dilutions of the DDPASFCA-positive plasma DPC38 into the DDPASFCA-negative plasma DPC50 using platelets from DPC50 as follows: Varying volume amounts of control plasma (DPC50), not containing DDPASs, were mixed with a the DDPAS-positive test plasma (total volume 50 μL). 1×10^6 platelets (PRP) was added. Samples were treated as in Example 1 with and without added Compound A. In the concentration range employed, DDPASs could be quantitatively measured in the test plasma. […] Thus, the signal intensity in the DDPASFCA was dose-dependent with respect to the plasma concentration for the DDPASFCA-positive subject DPC38. In contrast DDPASs were undetectable in the control plasma.
The development of DDPASs in the plasma of a patient who received Compound A and developed thrombocytopenia was analyzed using the procedure of Example 1. DDPASFCA was not determined for patient #304 prior to taking Compound A. The patient experienced thrombocytopenia after 3 days of administration of Compound A. DDPASs were subsequently detected in this patient's plasma on day 22 post-administration of Compound A and were also detected 17 months later (FIG. 2). DPC38 was used as a positive control. DPC3 was used as a negative control. […] In a prospective study, a patient with such pre-existing DDPASs could be excluded from the study, possibly preventing the clinically significant thrombocytopenic episode.

[3] = tested on: platelet CD62; test: Modified DDPASFCA using the donor's own platelets; format: cell-based; settings: healthy human donor, Compound A 200 nM
Procedure: The occurrence of DDPASs in the general population was tested by a modification of the DDPASFCA using the donor's own platelets to conduct the assay. PRP (100 μL) from healthy human donors was treated with Compound A (200 nM) or vehicle for 90 minutes. A 5μL sample was transferred to microtiter wells containing 20 μL anti-CD62-PE and samples analyzed by flow cytometry as described in Example 1. Positive samples (defined as Delta PE fluorescence of >0) were retested using the method of Example 1 (heterologous donor). 8% of donors were weakly positive (delta between 10 and 25). […] Thus, the prevalence and titer of pre-existing DDPASs is relatively low in the general population.

[4] = Neg. control plasma, IgG status +
[5] = Neg. control plasma, IgG status − (protein A-depleted)
[6] = Pos. control plasma, IgG status +
[7] = Pos. control plasma, IgG status − (protein A-depleted)
[8] = TCP plasma, IgG status − (protein A-depleted plasma)

Structure (SMILES): CCCCOC(=O)N[C@@H](CNC(=O)C[C@H]1CC(c2ccc(C(=N)N)cc2)=NO1)C(=O)O [Compound A, 2(S)-[(n-butoxycarbonyl)amino]-3-[[[3-[4-(aminoiminomethyl)phenyl]isoxazolin-5(R)-yl]methylcarbonyl]amino]propionic acid]
- + compound Med F12 ([1]; Compound A 1 μM alone): 11
- Delta Med F12 ([1]; with minus without Compound A 1 μM): −1
- + compound Med F12 ([2]; DPC38 0 ul, DPC50 50 ul): 12
- Delta Med F12 ([2]; DPC38 0 ul, DPC50 50 ul): −8
- + compound Med F12 ([2]; DPC38 8 ul, DPC50 42 ul): 64
- Delta Med F12 ([2]; DPC38 8 ul, DPC50 42 ul): 20
- + compound Med F12 ([2]; DPC38 10 ul, DPC50 40 ul): 73
- Delta Med F12 ([2]; DPC38 10 ul, DPC50 40 ul): 17
- + compound Med F12 ([2]; DPC38 12 ul, DPC50 38 ul): 88
- Delta Med F12 ([2]; DPC38 12 ul, DPC50 38 ul): 17
- + compound Med F12 ([2]; DPC38 17 ul, DPC50 33 ul): 135
- Delta Med F12 ([2]; DPC38 17 ul, DPC50 33 ul): 21
- + compound Med F12 ([2]; DPC38 25 ul, DPC50 25 ul): 271
- Delta Med F12 ([2]; DPC38 25 ul, DPC50 25 ul): 79
- Delta Med F12 ([2]; DPC38 50 ul, DPC50 0 ul): 304
- + compound Med F12 ([2]; DPC38 50 ul, DPC50 0 ul, DPC50 platelets): 670
- Delta (median PE fluorescence with minus without compound A) [2, 4]: −2 +/− 2
- FL2 compound A (median PE fluorescence) [2, 4]: 16 +/− 1
- Delta (median PE fluorescence with minus without compound A) [2, 5]: −44 +/− 15
- FL2 compound A (median PE fluorescence) [2, 5]: 30 +/− 9
- Delta (median PE fluorescence with minus without compound A) [2, 6]: 142 +/− 73
- FL2 compound A (median PE fluorescence) [2, 6]: 315 +/− 27
- Delta (median PE fluorescence with minus without compound A) [2, 7]: 122 +/− 52
- FL2 compound A (median PE fluorescence) [2, 7]: 297 +/− 33
- Delta (median PE fluorescence with minus without compound A) ([2]; TCP plasma, IgG status + (plasma)): 78 +/− 10
- FL2 compound A (median PE fluorescence) ([2]; TCP plasma, IgG status + (plasma), Compound A 200 nM): 154 +/− 8
- Delta (median PE fluorescence with minus without compound A) [2, 8]: 94 +/− 25
- FL2 compound A (median PE fluorescence) [2, 8]: 156 +/− 20
- DDPASs in patient plasma ([2]; patient #304, 17 months later): also detected
- DDPASs in patient plasma ([2]; patient #304, day 22 post-administration of Compound A): detected; also recorded: DDPASFCA positive
- DDPASs in plasmas of DDAB ELISA positive patients ([2]; pre-dose and study exit plasma, patients without clinically significant thrombocytopenia, except sample 099016): no substantial DDPASs
- Delta PE fluorescence of the significantly positive sample [3]: 566
